From publication PMC9603901, “Therapeutic Potential of Antimicrobial Peptide PN5 against Multidrug-Resistant E. coli and Anti-Inflammatory Activity in a Septic Mouse Model” (Microbiology Spectrum, 2022)
Where no end group is shown, it is not given here.

Legend:
S. Typhimurium KCTC 1926 = type: cell-based, Salmonella enterica serovar Typhimurium; settings: microdilution, NB, 18 to 24 h, 37°C, three independent experiments
Description: (§1) Bacterial cells were cultured at 37°C in the appropriate culture media with shaking (180 rpm). Luria-Bertani broth (LB) (244620; BD Difco) was used for E. coli ATCC 25922, ASEC strains, and B. subtilis KCTC 2217. Nutrient broth (NB) (234000; BD Difco) was used for P. aeruginosa ATCC 27853, S. Typhimurium KCTC 1926, and A. baumannii KCTC 2508. Tryptic soy broth (TSB) (211825; BD Difco) was used for S. aureus ATCC 25923. Finally, brain heart infusion (BHI) (237500; BD Difco) was used for L. monocytogenes KCTC 3710. The antimicrobial activity of each peptide was determined using microdilution assays. To this end, 2-fold serial dilution series of each peptide (from 1 to 64 μM) were added to duplicate media with 10 mM sodium phosphate buffer (pH 7.4). Fifty microliters of the peptide and antibiotic solution was added to each well of a 96-well plate (32096, surface nontreatment; SPL Life Sciences). Then, 50 μL of 2 × 10^5 CFU mL^−1 of bacteria was added to each well, and the samples were incubated for 18 to 24 h without shaking at 37°C.

A. baumannii KCTC 2508 = type: cell-based, Acinetobacter baumannii; settings: microdilution, NB, 18 to 24 h, 37°C, three independent experiments
Description: as §1

S. aureus ATCC 25923 = type: cell-based, Staphylococcus aureus; settings: microdilution, TSB, 18 to 24 h, 37°C, three independent experiments
Description: as §1

B. subtilis KCTC 2217 = type: cell-based, Bacillus subtilis; settings: microdilution, LB, 18 to 24 h, 37°C, three independent experiments
Description: as §1

[1] = system: L. monocytogenes KCTC 3710; type: cell-based, Listeria monocytogenes; settings: microdilution, BHI, 18 to 24 h, 37°C, three independent experiments
Description: as §1

[2] = system: E. coli ATCC 25922 biofilm; settings: 5 × 10^5 CFU mL^−1, 0.2% glucose, 24 h, 37°C, crystal violet A595, three independent experiments
Description: Crystal violet staining was performed to determine the degree of biofilm formation by the E. coli 25922, S. aureus 25923, and ASEC strains. E. coli 25922 and S. aureus 25923 were cultured overnight in LB and TSB media with aeration at 180 rpm, respectively. Bacterial suspensions with 0.2% glucose (5 × 10^5 CFU mL^−1) were added to a 96-well plate (30096, surface treatment; SPL Life Sciences) and incubated for 24 h at 37°C. The supernatant was removed and fixed with 100% methanol. Next, 100 μL of crystal violet was added to the plate and incubated to dye the cells for 1 h, followed by rinsing the cells three times with distilled water (dH2O). After the crystal violet was dissolved with 95% ethanol, the mass of biofilm formation at 595 nm was measured using a Versa Max microplate reader (Molecular Devices). The inhibitory effect of PN5 against biofilm formed by E. coli 25922, S. aureus 25923, and three MDR E. coli strains (ASEC 2, 16, and 18) were determined. These cells were cultured overnight in LB and TSB media. Bacterial suspensions (5 × 10^5 CFU mL^−1) containing 0.2% glucose were added to 96-well plates and PN5 was serially diluted to a final concentration of 32 μM. The minimal biofilm inhibitory concentration (MBIC) was determined in three independent experiments. The percentage of biofilm formation was measured using the equation (A595 of treated biofilm/A595 of untreated biofilm) × 100. Similarly, the MDR ASEC 1 to 19 strains were cultured overnight in LB medium and seeded into 96-well plates with medium containing 0.2% glucose at 5 × 10^5 CFU mL^−1 of the bacterial suspension. Biofilm staining was performed as described above. SYTO 9 (6 μM) fluorescence in LIVE/DEAD BacLight was used to visualize the degree of biofilm formation. […] After 24 h, the culture supernatant of the peptide and bacteria was discarded, and the pellet was fixed with 100% methanol. A fluorescence mixture of SYTO 9 and propidium iodide was then added to each well, and the fluorescence was evaluated with an EVOS FL color imaging system (Thermo Fisher Scientific) with a 4× objective ([22]).

RAW 264.7 cells [3] = assay: MTT cell viability; type: cell-based, mouse; settings: up to 200 μM, 24 h
Description: RAW 264.7 cells (mouse macrophage cells) were maintained in high-glucose Dulbecco’s modified Eagle medium (DMEM) (Welgene, Daegu, South Korea) supplemented with 10% fetal bovine serum (FBS) (Gibco) and 1% penicillin at 37°C in humidified 5% CO2. Cells (2 × 10^5 cells well^−1) were seeded into DMEM supplemented with 10% FBS medium in a 96-well plate. The MTT assay was performed after culturing the cells in 96-well plates at a density of 2 × 10^5 cells well^−1, followed by treatment with serially diluted PN5, magainin 2, and melittin. After 24 h, the medium was discarded, and 100 μL DMEM and 10% FBS medium containing 0.5 mg mL^−1 MTT were added to each well. After 4 h of incubation, the medium was discarded and dimethyl sulfoxide was added to each well to solubilize the formazan. The optical densities at 570 and 650 nm (OD570 and OD650, respectively) of the treated cells were compared to those of control cells. The hemolytic activity of the peptides was evaluated as the release of hemoglobin from an 8% mRBC suspension. A 100-μL aliquot of the 8% mRBC suspension was added to the wells of a 96-well plate, and 100 μL of peptide solution in phosphate-buffered saline (PBS) was added at a final peptide concentration of 200 μM. After incubation for 1 h at 37°C with shaking (50 rpm), the suspensions were centrifuged at 1,000 × g for 5 min. The absorbance of the supernatant was measured at 414 nm using a Versa Max microplate reader (Molecular Devices). As a control, no hemolysis and complete hemolysis were determined in PBS and 0.1% Triton X-100, respectively. The degree of hemolysis was calculated using the following equation as described in reference: %hemolysis=[(A414withpeptide-A414withPBS)/(A414with0.1%TritonX-100-A414 with PBS)] × 100

RAW 264.7 cells [4] = assay: IncuCyte Cytotox green time-dependent cytotoxicity; type: cell-based, mouse; settings: 200 μM, 24 h
Description: An IncuCyte cytotoxicity assay (Essen BioScience, Inc., Ann Arbor, MI, USA) was performed to evaluate time-dependent cytotoxicity. RAW 264.7 cells (2 × 10^5 cells well^−1) were seeded into 96-well culture plates and then treated with peptides and IncuCyte Cytotox green reagent (Essen BioScience, Inc.). Up to 200 μM PN5 and 25 μM melittin were used to treat RAW 264.7 cells, with the concentrations serially diluted by half. […] The cells were stained with IncuCyte Cytotox green reagent. The viability was measured using IncuCyte software (Essen BioScience, Inc.) ([56]).

FKFLARTGKFL-NH2 [PN5]
MIC (S. Typhimurium KCTC 1926): 2 µM | MIC (A. baumannii KCTC 2508): 4 µM | MIC (S. aureus ATCC 25923): 2 µM | MIC (B. subtilis KCTC 2217): 4 µM | MIC [1]: 16 µM | MBIC50 (minimum inhibitory concentration resulting in at least 50% inhibition of biofilm formation) [2]: 16 (21.22) μM | toxicity, MTT assay (RAW 264.7 cells [3]): did not show toxicity | cytotoxicity, Cytotox green fluorescence (RAW 264.7 cells [4]): no toxicity
